Measured values: paper PMC8936051 (Journal of medicinal chemistry, 2022)
Where two headings read alike, the source gives them in different places. Peptide text beside a SMILES is read from it. * marks the point of attachment. Cbz = O=C(OCc1ccccc1)*; CH2F = FC*

Legend:
[1] = system: SARS-CoV-2 live virus; assay: microbe, parasite or virus in culture; assay type: cell-based
[2] = system: SARS-CoV-2 PP entry into HEK293-ACE2 cells; assay: microbe, parasite or virus in culture; assay type: cell-based
[3] = biological target: T1, SARS-CoV-2 3CL protease (Severe acute respiratory syndrome coronavirus 2, UniProt P0DTD1); assay type: biochemical; details: read-out: IC50, 3CL protease assay
[4] = biological target: T1, SARS-CoV-2 3CL protease; details: read-out: IC50, 3CL protease; finding of Sun et al.; cited from earlier work
[5] = Severe acute respiratory syndrome coronavirus 2, read-out: AC50 (potency), CPE assay
[6] = Severe acute respiratory syndrome coronavirus 2, read-out: IC50, PP entry assay
[7] = read-out: AC50 (potency), CPE assay

SMILES | efficacy, PP entry assay [2] [%] | IC50 [2, 6] [µM] | AC50 [1, 7] [µM] | other results
CCN(CC)Cc1cc(Nc2ccnc3cc(Cl)ccc23)ccc1O [NCGC00017063, Amodiaquine] | 103 | 19 |  | AC50 [1, 5]: 4.14 ± 1.41 µM
COc1ccc2cc1Oc1ccc(cc1)C[C@H]1c3c(cc4c(c3Oc3cc5c(cc3OC)CCN(C)[C@@H]5C2)OCO4)CCN1C [NCGC00161621, Cepharanthine] | 102 | 6.88 |  | AC50 [1, 5]: 1.41 ± 0.39 µM
CCN(CC)CCCCNc1nc2cc(Cl)c(Cl)cc2nc1-c1ccc(-c2cccs2)s1 [NCGC00263128, PD 0220245] |  |  | < 5 | 
O=C(NCc1ccccc1)[C@H](Cc1ccccc1)NC(=O)[C@H]1O[C@@H]1C(=O)NCCc1ccc(O)cc1 [NCGC00345807, CAA-0225] | 89 |  | 0.2 ± 0.07 | IC50 ([2]; read-out: IC50, PP entry assay): 0.6 µM
C=C(c1ccc(C(=O)O)c(F)c1)c1cc2c(cc1C)C(C)(C)CCC2(C)C [NCGC00371011, Fluorobexarotene] |  |  |  | IC50 [3]: 28.9 ± 2.35 µM
Nc1nc(Nc2ccc3c(c2)CC[C@@H](N2CCCC2)CC3)nn1-c1cc2c(nn1)-c1ccccc1CCC2 [NCGC00386665, Bemcentinib] | 112 | 19 |  | AC50 [1, 5]: 3.36 µM
COC(=O)C[C@H](NC(=O)[C@H](CCSC)NC(=O)[C@H](CCC(N)=O)NC(=O)[C@H](CC(=O)OC)NC(=O)OCc1ccccc1)C(=O)CF [NCGC00390337, Z-DQMD-FMK] (Cbz-D(OMe)QMD(OMe)-CH2F) |  |  |  | IC50 [4]: 0.94 µM; IC50 [3]: 0.92 µM
CC[C@@]1(O)C(=O)OCc2c1cc1n(c2=O)Cc2c-1nc1cc(F)c(C)c3c1c2[C@@H](N)CC3 [NCGC00390584, Exatecan] |  | 0.0031 |  | 
COc1ccc(C(C)(C)C)cc1CN[C@H]1C2CCN(CC2)[C@H]1C(c1ccccc1)c1ccccc1 [NCGC00390625, Maropitant] |  |  | 3.55 ± 1.12 | 
COc1ccc(-c2cc3c(nc2-c2ccccc2)nc(C(=O)NCCN(C)C)n3C)cn1 [NCGC00417833] |  |  | 22 | 
OC(c1cc(-c2ccc(Cl)cc2)nc2ccccc12)C1CCCCN1 (centres unmarked) [NCGC00482724, Vacquinol-1] |  |  | < 5 | 
CCCc1cc(C)[nH]c(=O)c1CNC(=O)c1cc(-c2ccc(N3CCN(C)CC3)nc2)nc2c1cnn2C(C)C [NCGC00590975, JQEZ5] |  |  | < 5 | 
CCN(CC)CCCNc1ccnc2cc(Cl)ccc12 [NCGC00599688, AQ-13] |  |  | 3.98 | IC50 ([2]; read-out: IC50, PP entry assay): 14.2 ± 11.7 µM
